In PubChem BioAssay (NCI):
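These data come from cells grown in 96-well plates and exposed to compound for 48 hours at five concentrations. GI50 marks 50% less growth. TGI marks complete inhibition of growth.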

Assays:
Assay in all cases: NCI anticancer screen, dose series, 48 h
[1] = test system: A498 renal
[2] = test system: SK-MEL-28 melanoma
[3] = test system: NCI-H23 lung
[4] = test system: CAKI-1 renal
[5] = test system: SK-MEL-2 melanoma
[6] = test system: COLO 205 colon
[7] = test system: HS 578T breast
[8] = test system: NCI-H460 lung
[9] = test system: SF-539 CNS
[10] = test system: HT29 colon
[11] = test system: OVCAR-8 ovarian
[12] = test system: RXF 393 renal
[13] = test system: NCI-H522 lung
[14] = test system: PC-3 prostate
[15] = test system: A549 NSCLC
[16] = test system: HL-60(TB) leukemia
[17] = test system: BT-549 breast
[18] = test system: IGROV1 ovarian
[19] = test system: SN12C renal
[20] = test system: U251 CNS
[21] = test system: ACHN renal
[22] = test system: MALME-3M melanoma
[23] = test system: HOP-62 NSCLC
[24] = test system: MCF7 breast
[25] = test system: SW-620 colon
[26] = test system: SR leukemia
[27] = test system: OVCAR-3 ovarian
[28] = test system: MOLT-4 leukemia
[29] = test system: KM12 colon
[30] = test system: MDA-MB-231 breast
[31] = test system: T-47D breast
[32] = test system: UACC-257 melanoma
[33] = test system: HCT-116 colon
[34] = test system: SNB-19 CNS
[35] = test system: SF-295 CNS
[36] = test system: MDA-MB-435
[37] = test system: HOP-92 NSCLC
[38] = test system: CCRF-CEM leukemia
[39] = test system: SK-MEL-5 melanoma
[40] = test system: UACC-62 melanoma
[41] = test system: M14 melanoma
[42] = test system: HCT-15 colon
[43] = test system: DU-145 prostate
[44] = test system: SF-268 CNS
[45] = test system: TK-10 renal
[46] = test system: OVCAR-5 ovarian
[47] = test system: K-562 leukemia
[48] = test system: NCI/ADR-RES ovarian
[49] = test system: RPMI-8226 leukemia
[50] = test system: LOX IMVI melanoma
[51] = test system: UO-31 renal
[52] = test system: SNB-75 CNS
[53] = test system: EKVX NSCLC
[54] = test system: NCI-H226 lung
[55] = test system: HCC-2998 colon

COc1ccc2c(c1)N(Cc1ccc(Cl)cc1)CCC2N1CCCC1=O (stereo not given)
GI50 [1]: 3.22 µM | TGI [1]: 49.7 µM | GI50 [2]: 8.28 µM | TGI [2]: 45.6 µM | GI50 [3]: 4.37 µM | TGI [3]: 57.2 µM | GI50 [4]: 3.49 µM | TGI [4]: 16.7 µM | GI50 [5]: 6 µM | TGI [5]: 28.8 µM | GI50 [6]: 5.33 µM | TGI [6]: 20 µM | GI50 [7]: 2.76 µM | TGI [7]: 26.5 µM | GI50 [8]: 4.22 µM | TGI [8]: > 100 µM | GI50 [9]: 4.94 µM | TGI [9]: 69.3 µM | GI50 [10]: 7.2 µM | TGI [10]: > 100 µM | GI50 [11]: 4.6 µM | TGI [11]: 57.3 µM | GI50 [12]: 2.77 µM | TGI [12]: 10.9 µM | GI50 [13]: 4.33 µM | TGI [13]: 35.8 µM | GI50 [14]: 3 µM | TGI [14]: 38.7 µM | GI50 [15]: 4.48 µM | TGI [15]: 51.5 µM | GI50 [16]: 5.34 µM | TGI [16]: 24.9 µM | GI50 [17]: 3.23 µM | TGI [17]: 19.6 µM | GI50 [18]: 3.51 µM | TGI [18]: > 100 µM | GI50 [19]: 4.68 µM | TGI [19]: 89.1 µM | GI50 [20]: 3.28 µM | TGI [20]: 59.6 µM | GI50 [21]: 4.85 µM | TGI [21]: 88.2 µM | GI50 [22]: 3.99 µM | TGI [22]: 27.2 µM | GI50 [23]: 4.27 µM | TGI [23]: 42.7 µM | GI50 [24]: 3.5 µM | TGI [24]: 25.5 µM | GI50 [25]: 6.48 µM | TGI [25]: > 100 µM | GI50 [26]: 6.37 µM | TGI [26]: > 100 µM | GI50 [27]: 4.42 µM | TGI [27]: > 100 µM | GI50 [28]: 4.9 µM | TGI [28]: 24.6 µM | GI50 [29]: 4.84 µM | TGI [29]: 29.3 µM | GI50 [30]: 4.84 µM | TGI [30]: 98.5 µM | GI50 [31]: 2.85 µM | TGI [31]: 26.2 µM | GI50 [32]: 3.07 µM | TGI [32]: 11.2 µM | GI50 [33]: 5.24 µM | TGI [33]: > 100 µM | GI50 [34]: 4.3 µM | TGI [34]: 51.7 µM | GI50 [35]: 1.67 µM | TGI [35]: 5.08 µM | GI50 [36]: 3.77 µM | TGI [36]: 15 µM | GI50 [37]: 2.75 µM | TGI [37]: 20.5 µM | GI50 [38]: 4.74 µM | TGI [38]: > 100 µM | GI50 [39]: 2.05 µM | TGI [39]: 4.61 µM | GI50 [40]: 3.25 µM | TGI [40]: 14.9 µM | GI50 [41]: 4.42 µM | TGI [41]: 17.6 µM | GI50 [42]: 4 µM | TGI [42]: > 100 µM | GI50 [43]: 2.66 µM | TGI [43]: > 100 µM | GI50 [44]: 5.41 µM | TGI [44]: > 100 µM | GI50 [45]: 6.98 µM | TGI [45]: 60.9 µM | GI50 [46]: 6.6 µM | TGI [46]: > 100 µM | GI50 [47]: 4.6 µM | TGI [47]: > 100 µM | GI50 [48]: 3.72 µM | TGI [48]: 49.6 µM | GI50 [49]: 1.46 µM | TGI [49]: 12.8 µM | GI50 [50]: 3.54 µM | TGI [50]: > 100 µM | GI50 [51]: 1.79 µM | TGI [51]: 14.6 µM | GI50 [52]: 3.22 µM | TGI [52]: 35.8 µM | GI50 [53]: 3.39 µM | TGI [53]: 19.1 µM | GI50 [54]: 2.89 µM | TGI [54]: 34.5 µM | GI50 [55]: 5.32 µM | TGI [55]: > 100 µM
